Measured values published in patent US12544375B2, “Small molecule therapeutic for parkinson's disease paired with a biomarker of therapeutic activity” (The Board of Trustees of the Leland Stanford Junior …, priority 2019, dated 2026).

System: LRRK2^G2019S, PINK1 null and SNCA^A53T flies
Assay: Dopaminergic neuron number in fly PD models (anti-TH)
Format: in vivo
Conditions: 2.5 μM in food, all three PD models
Procedure: FIG. 4A-FIG. 4I. Miro1 Reducer Rescues PD-Relevant Phenotypes in Flies. For all panels, when Miro1 Reducer was not added, the same volume of the solvent, DMSO, was supplied in fly food. Drug administration (2.5 μM) was started from day 2. (FIG. 4A-FIG. 4C) Survival curves of LRRK2^G2019S (FIG. 4A), PINK1^B9 (imprecise excision, null) and PINK1^RV (the precise excision control for PINK1^B9) (FIG. 4B), and SNCA^A53T flies (FIG. 4C). n=58-150. (FIG. 4D) Dopaminergic (DA) neurons in the PPM1/2 clusters of 22-day old flies were immunostained with anti-TH. (FIG. 4D-FIG. 4F) Quantification of the DA neuron number in the PPL1 or PPM1/2 cluster (total number divided by 2 for each brain). (FIG. 4D) LRRK2^G2019S. n=6-8 brains. (FIG. 4E) PINK1^B9 (“−”) and PINK1^RV (“+”). n=9-16. (FIG. 4F) SNCA^A53T. n=9-11. […]
Immunocytochemistry and Confocal Microscopy. PI (P4170, Sigma) at 2.5 μg/ml or 4′, 6-Diamidino-2-phenylindole (Dapi-D9542, Sigma) at 0.5 μg/ml was applied in culture media at room temperature in the dark for 10 min, MitoSox (M36008, Invitrogen) at 2 μM was applied in culture media at 37° C. for 10 min, or TMRM (T668, Molecular Probes) at 25 nM was applied in culture media at 37° C. for 30 min, and cells were washed with HBSS and imaged immediately in a 35-mm petridish containing the Hibernate E low-fluorescence medium with a 63×/N.A.0.9 water-immersion objective. […]

O=C(Nc1ccc(Nc2cc(-n3ccnc3)ncn2)cc1)Nc1cccc(F)c1 [Miro1 Reducer]
age-dependent dopaminergic neuronal loss: significantly rescued
